In patent publication EP0059645A1, “Method and kit for identification of beta-lactamases” (NATIONAL RESEARCH DEVELOPMENT CORPORATION, priority 1981, dated 1982):
Marks after values point to notes of the source that are not given here.

How the values were obtained:
Test in all cases: Competitive assay with nitrocefin (RSAI)
[1] = target: TEM-2 (Escherichia coli, UniProt P62593, Q37K); format: biochemical, E. coli 1725E
Description: (§1) It is convenient to express the results in terms of a Relative Substrate Affinity Index (RSAI) value.
(§2) RSAI = Concentration of competing substrate which gives 50% inhibition of ring-opening hydrolysis of the chromogenic substrate
(§3) Concentration of chromogenic substrate in the assay A high RSAI value therefore indicates a low affinity of the beta-lactamase for that competing substrate, and therefore predicts resistance of a beta-lactam competing substrate to hydrolysis by the beta-lactamase. Low RSAI values, in contrast, predict sensitivity to hydrolysis by a beta-lactamase.
(§4) Beta-lactam antibiotics which bind to the TEM-2 enzyme compete with nitrocefin in the assay. […] . This concentration of ampicillin is a direct estimate of the relative affinity of the TEM-2 enzyme for ampicillin. […] . The RSAI value was therefore 1.3.

[2] = system: HMS-1; format: biochemical, E. coli 1946
[3] = target: T1, Chromosomal, constitutive beta-lactamase enzyme (Enterobacter cloacae, UniProt P05364); format: biochemical, E. cloacae
T1 construct: Normally, therefore, the beta-lactamase has to be extracted from the cells for the purpose of the present invention; endogenous in cells

[4] = system: PSE-3; format: biochemical, Ps.aerug. 1920E
[5] = target: T2, Chromosomal, induced beta-lactamase enzyme (Pseudomonas aeruginosa, UniProt P24735); format: biochemical, Ps.aerug. 1937E + ampicillin
T2 construct: Normally, therefore, the beta-lactamase has to be extracted from the cells for the purpose of the present invention; endogenous in cells; host or cells: Pseudomonas aeruginosa 1937E grown with ampicillin

[6] = system: K10317; format: biochemical, K.aerog. 10317
Description: as §1, §2, §3, §4

[7] = system: K1073; format: biochemical, Klebsiella 1073
Description: as §1, §2, §3, §4

[8] = system: K17; format: biochemical, Klebsiella 17
Description: as §1, §2, §3, §4

[9] = target: OXA-3 (Pseudomonas aeruginosa, UniProt Q51429); format: biochemical, E. coli R57B; design: Normally, therefore, the beta-lactamase has to be extracted from the cells for the purpose of the present invention; endogenous in cells
[10] = target: PSE-1 (Pseudomonas aeruginosa, UniProt Q03170); format: biochemical, Ps.aerug. 1937E; design: Normally, therefore, the beta-lactamase has to be extracted from the cells for the purpose of the present invention; endogenous in cells
[11] = target: PSE-2 (Pseudomonas aeruginosa, UniProt P14489); format: biochemical, Ps.aerug. 1973E; design: Normally, therefore, the beta-lactamase has to be extracted from the cells for the purpose of the present invention; endogenous in cells
[12] = target: PSE-4 (Pseudomonas aeruginosa, UniProt P16897); format: biochemical, Ps.aerug. 1559E; design: Normally, therefore, the beta-lactamase has to be extracted from the cells for the purpose of the present invention; endogenous in cells
[13] = target: SHV-1 (Escherichia coli, UniProt P0AD63); format: biochemical, E. coli 2008E; design: the beta-lactamase has to be extracted from the cells for the purpose of the present invention; made in house; host or cells: E. coli 2008E (crude cell extract)
[14] = target: TEM-1 (Escherichia coli, UniProt P62593); format: biochemical, E. coli 2136E; design: the beta-lactamase has to be extracted from the cells for the purpose of the present invention; made in house; host or cells: E. coli 2136E (plasmid-bearing strain; crude cell extract)
[15] = target: OXA-1 (Escherichia coli, UniProt P13661); format: biochemical, E. coli 1527E; design: the beta-lactamase has to be extracted from the cells for the purpose of the present invention; made in house; host or cells: E. coli 1527E according to the earlier reading (crude cell extract)
[16] = target: Chromosomal, hyper-induced beta-lactamase enzyme (Escherichia coli, UniProt P00811); format: biochemical, E. coli SNU35; design: Normally, therefore, the beta-lactamase has to be extracted from the cells for the purpose of the present invention; endogenous in cells; host or cells: E. coli SNU 35 (artificially produced strain)
[17] = target: OXA-2 (Escherichia coli, UniProt P0A1V9); format: biochemical, E. coli R46; design: the beta-lactamase has to be extracted from the cells for the purpose of the present invention; made in house; host or cells: E. coli carrying R46 according to the earlier reading (crude cell extract)

Cc1nnc(SCC2=C(C(=O)O)N3C(=O)[C@@H](NC(=O)Cn4cnnn4)[C@H]3SC2)s1 [Cephalo-zolin, Cephalozolin]
RSAI [1]: 48 | RSAI [2]: 0.8 | RSAI [3]: 17 | RSAI [4]: 3.2 | RSAI [5]: 15 | RSAI [6]: 30 | RSAI [7]: 16 | RSAI [8]: 1 | RSAI [9]: 3.4 | RSAI [10]: 2 | RSAI [11]: 1.4 | RSAI [12]: 2.6 | RSAI [13]: 15 | RSAI [14]: 30 | RSAI [15]: 10 | RSAI [16]: 46 | RSAI [17]: 3.4

CC1=C(C(=O)O)N2C(=O)[C@@H](NC(=O)[C@H](N)C3=CCC=CC3)[C@H]2SC1 [Cephra-dine, cephradine]
RSAI [1]: 50 | RSAI [2]: 25 | RSAI [3]: 1.8 | RSAI [4]: 3.6 | RSAI [5]: 1 | RSAI [6]: 18 | RSAI [7]: 25 | RSAI [8]: 10.4 | RSAI [9]: 100 | RSAI [10]: 46 | RSAI [11]: 4.2 | RSAI [12]: 80 | RSAI [13]: 15 | RSAI [14]: 35 | RSAI [15]: 420 | RSAI [16]: 0.12 | RSAI [17]: 86

O=C(O)[C@H]1/C(=C/CO)O[C@@H]2CC(=O)N21 [Clavulanic acid]
RSAI [1]: 0.002* | RSAI [2]: 0.006* | RSAI [3]: 50 | RSAI [4]: 0.014 | RSAI [5]: >40 | RSAI [6]: 0.004* | RSAI [7]: 0.004* | RSAI [8]: 0.004* | RSAI [9]: 1.6* | RSAI [10]: 0.0001 | nature of the binding to the enzyme [10]: reversibly | RSAI [11]: 0.4 | RSAI [12]: 0.004* | nature of the binding to the enzyme [12]: irreversibly | RSAI [13]: 0.006* | RSAI [14]: 0.003* | RSAI [15]: 0.02* | RSAI [16]: 4 | RSAI [17]: 0.9*

C[C@@H](O)[C@H]1C(=O)N2C(C(=O)O)=C(SCCN=CN)C[C@H]12 [MK 0787 (N-Formimidoyl-thienamycin), N-Formimidoyl-thienamycin]
RSAI [1]: 0.1 | RSAI [2]: 1.2 | RSAI [3]: 0.03 | RSAI [4]: 0.5 | RSAI [5]: 0.015 | RSAI [6]: 0.24 | RSAI [7]: 1.9 | RSAI [8]: 2.1 | RSAI [9]: 0.0016* | RSAI [10]: 19.4 | RSAI [11]: 0.08 | RSAI [12]: 15 | RSAI [13]: 1.2 | RSAI [14]: 0.1 | RSAI [15]: 0.6* | RSAI [16]: 2 | RSAI [17]: 0.005*

CC1(C)S[C@@H]2[C@H](NC(=O)[C@H](NC(=O)N3CCN(S(C)(=O)=O)C3=O)c3ccccc3)C(=O)N2[C@H]1C(=O)O [Mezlo-cillin, Mezlocillin]
RSAI [1]: 6.3 | RSAI [2]: 0.9 | RSAI [3]: 0.4 | RSAI [4]: 0.8 | RSAI [5]: 0.26 | RSAI [6]: 16.4 | RSAI [7]: 5.5 | RSAI [8]: 1.3 | RSAI [9]: 19.2 | RSAI [10]: 1.2 | RSAI [11]: 4.75 | RSAI [12]: 0.9 | RSAI [13]: 3 | RSAI [14]: 3.6 | RSAI [15]: 1.9 | RSAI [16]: 0.3 | RSAI [17]: 19.4

CC1(C)S[C@@H]2[C@H](NC(=O)Cc3ccccc3)C(=O)N2[C@H]1C(=O)O [Peni-cillin G, Penicillin G]
RSAI [1]: 1 | RSAI [2]: 0.5 | RSAI [3]: 0.08 | RSAI [4]: 0.3 | RSAI [5]: 0.13 | RSAI [6]: 2.2 | RSAI [7]: 2 | RSAI [8]: 1.2 | RSAI [9]: 0.4 | RSAI [10]: 0.6 | RSAI [11]: 0.2 | RSAI [12]: 0.48 | RSAI [13]: 1 | RSAI [14]: 3 | RSAI [15]: 0.2 | RSAI [16]: 0.18 | RSAI [17]: 0.6
